Laboratory results: PubChem BioAssay (NCI)
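A five-concentration, 48-hour dose response in 96-well plates underlies each endpoint, interpolated linearly between surrounding concentrations. The concentration for 50% growth inhibition is given as GI50. The concentration for full growth arrest is given as TGI.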

Experiments:
Assay in all cases: growth of human tumour cells (NCI), 48 h
SK-MEL-28 melanoma = tested on: SK-MEL-28 melanoma
NCI-H460 lung = tested on: NCI-H460 lung
OVCAR-4 ovarian = tested on: OVCAR-4 ovarian
UACC-257 melanoma = tested on: UACC-257 melanoma
DU-145 prostate = tested on: DU-145 prostate
SK-OV-3 ovarian = tested on: SK-OV-3 ovarian
M14 melanoma = tested on: M14 melanoma
ACHN renal = tested on: ACHN renal
OVCAR-5 ovarian = tested on: OVCAR-5 ovarian
MCF7 breast = tested on: MCF7 breast

Row | SMILES | TGI (SK-MEL-28 melanoma) [µM] | TGI (NCI-H460 lung) [µM] | TGI (OVCAR-4 ovarian) [µM] | TGI (UACC-257 melanoma) [µM] | TGI (DU-145 prostate) [µM] | TGI (SK-OV-3 ovarian) [µM] | TGI (M14 melanoma) [µM] | TGI (ACHN renal) [µM] | TGI (OVCAR-5 ovarian) [µM] | TGI (MCF7 breast) [µM] | GI50 (SK-MEL-28 melanoma) [µM] | GI50 (NCI-H460 lung) [µM] | GI50 (OVCAR-4 ovarian) [µM] | GI50 (UACC-257 melanoma) [µM] | GI50 (DU-145 prostate) [µM] | GI50 (SK-OV-3 ovarian) [µM] | GI50 (M14 melanoma) [µM] | GI50 (ACHN renal) [µM] | GI50 (OVCAR-5 ovarian) [µM] | GI50 (MCF7 breast) [µM]
1 | Cc1ccc(N2C=Nn3c(nc4sc5c(c4c3=O)CCCC5)C2)cc1 | > 100 | > 100 | > 100 | > 100 | > 100 | > 100 | > 100 | > 100 | > 100 | > 100 |  |  |  |  |  |  |  |  |  | 
2 | COc1ccccc1N1C(=O)CSC1c1cccc(Oc2ccccc2)c1 (stereo not given) | 34.6 | 33.3 | 39.6 | 33.6 | 38.7 | > 100 | 33.5 | 38.2 | 50.4 | 37.1 |  |  |  |  |  |  |  |  |  | 
3 | N#CC1(C#N)C(=O)c2ccncc2C1=O | > 100 | > 100 | > 100 | > 100 | > 100 | > 100 | > 100 | > 100 | > 100 | > 100 |  |  |  |  |  |  |  |  |  | 
4 | COc1cc(-c2n/c(=C\c3c(O)[nH]c4ccccc34)cc3c2=Nc2ccccc2-3)ccc1F | 22.6 | 58.2 | 6.4 | 40 | 25.5 | 43.5 | 22.3 | 35.2 | 90.8 | > 100 | 6.2 | 4.37 | 2.32 | 15 | 7.3 | 17.1 | 5.2 | 8.09 | 22.2 | 2.51
5 | COc1nc2c(c(=O)[nH]1)N=C(c1ccccc1)CC(c1ccccc1)N2 (stereo not given) | > 100 | > 100 | 81.4 | > 100 | > 100 | > 100 | > 100 | > 100 | > 100 | > 100 |  |  |  |  |  |  |  |  |  | 
6 | C[n+]1c2ccccc2n2c3ccccc3c(NCc3ccco3)c(C#N)c21 | 5.75 | 4.19 | 10.7 | 57.4 | > 22.1 | 39.8 | 5.62 | 9.08 | 12 | 11.9 |  |  |  |  |  |  |  |  |  | 
7 | CCc1cc2c(cc1C(=O)CCC(=O)O)CC1(C2)Cc2cc(CC)c(C(=O)CCC(=O)O)cc2C1 | > 100 | > 100 | > 100 | > 100 | > 100 | > 100 | > 100 | > 100 | > 100 | > 100 |  |  |  |  |  |  |  |  |  | 
8 | Cn1c2ccccc2c2c3c(c4c5ccccc5n(C)c4c21)C(=O)N(Cc1ccccc1)C3=O | > 100 | > 100 | > 100 | > 100 | > 100 | > 100 | > 100 | > 100 | > 100 | > 100 |  |  |  |  |  |  |  |  |  | 
9 | NS(=O)(=O)c1ccc(N=Nc2ccc(O)cc2)cc1 | > 100 | > 100 | > 100 | > 100 | > 100 | > 100 | > 100 | > 100 | > 100 | > 100 |  |  |  |  |  |  |  |  |  | 
10 | Fc1ccccc1-c1cc(=S)c2cc3c(cc2[nH]1)OCO3 | > 100 | > 100 | > 100 | > 100 | > 100 | > 100 | > 100 | > 100 | > 100 | > 100 |  |  |  |  |  |  |  |  |  | 
11 | Cc1cn(CCCCOC(=O)NC(CCCN=C(N)N)C(=O)O)c(=O)[nH]c1=O (stereo not given) | > 100 | > 100 | > 100 | > 100 | > 100 | > 100 | > 100 | > 100 | > 100 | > 100 |  |  |  |  |  |  |  |  |  | 
12 | CS(=O)(=O)c1ccc(C(=O)O[C@@H]2C(=O)N3CC[C@H]4OC(O)[C@@H]2[C@H]43)cc1 (stereo not given in full) | > 100 | > 100 | > 100 | > 100 | > 100 | > 100 | > 100 | > 100 | > 100 | > 100 |  |  |  |  |  |  |  |  |  | 
13 | CC(C)(C)OC(=O)NCC(c1c[nH]c2cc(Br)ccc12)c1c[nH]c2cc(Br)ccc12 | 83.4 | 48.7 | 32.9 | 44.6 | 31.7 | 29.5 | 37.3 | 30.3 | 31.4 | 34.7 |  |  |  |  |  |  |  |  |  | 
14 | Cc1cn(C(CO)OC(CO)CN(O)C2C3CC4CC(C3)CC2C4)c(=O)[nH]c1=O (stereo not given) | > 100 | > 100 | > 100 | > 100 | > 100 | > 100 | > 100 | > 100 | > 100 | > 100 |  |  |  |  |  |  |  |  |  | 
15 | O=C(CSc1nc2ccc(I)cc2c(=O)n1Cc1ccccc1)NNC(=S)Nc1ccccc1 | > 100 | > 100 | > 100 | 98.7 | > 100 | > 100 | > 100 | > 100 | > 100 | > 100 |  |  |  |  |  |  |  |  |  | 
16 | COc1c(O)cc2c(c1O)C(=O)C(Cc1ccc(O)cc1)CO2 (stereo not given) | > 100 | > 100 | > 100 | > 100 | > 100 | > 100 | > 100 | > 100 | > 100 | > 100 |  |  |  |  |  |  |  |  |  | 
17 | CC(C)(C)n1[nH]c(=O)n(C(C)(C)C)c1=O | > 100 | > 100 | > 100 | > 100 | > 100 | > 100 | > 100 | > 100 | > 100 | > 100 |  |  |  |  |  |  |  |  |  | 
18 | CC12CP(=O)(O)CC1C2(Cl)Cl (stereo not given) | > 100 | > 100 | > 100 | > 100 | > 100 | > 100 | > 100 | > 100 | > 100 | > 100 |  |  |  |  |  |  |  |  |  | 
19 | CC1(C)CC[C@]2(C)[C@@H](O)C[C@]3(C)C(=CC[C@@H]4[C@@]5(C)CC[C@H](O)C(C)(C)[C@@H]5CC[C@]43C)[C@@H]2C1 | > 100 | > 100 | > 100 | > 100 | > 100 | 40.7 | > 100 | > 100 | > 100 | > 100 |  |  |  |  |  |  |  |  |  | 
20 | CCCCCCCCCCCCCC(=O)OCC(CCS(=O)(=O)O[C@H]1CC[C@@]2(C)C(=CC[C@@H]3C2CC[C@]2(C)C(=O)CCC32)C1)OC(=O)CCCCCCCCCCCCC (stereo not given in full) | > 100 | > 100 | > 100 | > 100 | > 100 | > 100 | > 100 | > 100 | > 100 | > 100 |  |  |  |  |  |  |  |  |  | 
21 | C=CC(=C)CCC(Br)C(C)(C)Br (stereo not given) | > 100 | > 100 | > 100 | > 100 | > 100 | > 100 | > 100 | > 100 | > 100 | > 100 |  |  |  |  |  |  |  |  |  | 
22 | CN1/C(=C\N=O)C(C)(C)N(O)C1(C)C | > 100 | > 100 | > 100 | > 100 | > 100 | > 100 | > 100 | > 100 | > 100 | > 100 |  |  |  |  |  |  |  |  |  | 
23 | Cc1cc2c3c(nc2c2cc[nH]c(C)c12)CCCC3 | 3.57 | 4.27 | 6.45 | 3.66 | 11.1 | 3.7 | 3.63 | 15 | 13.6 | 3.02 |  |  |  |  |  |  |  |  |  | 
24 | Cc1nc(-c2cccnc2)sc1C(=O)CC(=O)C(=O)Nc1cccc(NC(=O)C(=O)CC(=O)c2sc(-c3cccnc3)nc2C)n1 | > 100 | > 100 | > 100 | > 100 | > 100 | > 100 | > 100 | > 100 | > 100 | > 100 |  |  |  |  |  |  |  |  |  | 
